US12209081B2 (Katholieke Universiteit Leuven, priority 2020, dated 2025)

biological target: mouse TRPM3α2 (mTRPM3) ion channel (Mus musculus (Mouse), UniProt J9SQF3); test: TRPM3 ion channel driven Ca2+ uptake, Fluo-4 AM assay, mTRPM3alpha2 overexpressing flip-in HEK293 cells stimulated with pregnenolone sulfate; type: cell-based; conditions: PS 50 μM, cpds 200-299
Summary of the method: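 Read-out is Ca2+ influx via Fluo-4 AM fluorescence at 485/535 nm, taken right after seeding ~2000 cells/well onto compound with 50 μM PS. Inhibition computed from RFU between vehicle-stimulated and positive-control-inhibitor wells; cells were mTRPM3α2-overexpressing flip-in HEK293.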

Chain of mouse TRPM3α2 (mTRPM3) ion channel (J9SQF3 other isoform, or with tags, fused parts or gaps): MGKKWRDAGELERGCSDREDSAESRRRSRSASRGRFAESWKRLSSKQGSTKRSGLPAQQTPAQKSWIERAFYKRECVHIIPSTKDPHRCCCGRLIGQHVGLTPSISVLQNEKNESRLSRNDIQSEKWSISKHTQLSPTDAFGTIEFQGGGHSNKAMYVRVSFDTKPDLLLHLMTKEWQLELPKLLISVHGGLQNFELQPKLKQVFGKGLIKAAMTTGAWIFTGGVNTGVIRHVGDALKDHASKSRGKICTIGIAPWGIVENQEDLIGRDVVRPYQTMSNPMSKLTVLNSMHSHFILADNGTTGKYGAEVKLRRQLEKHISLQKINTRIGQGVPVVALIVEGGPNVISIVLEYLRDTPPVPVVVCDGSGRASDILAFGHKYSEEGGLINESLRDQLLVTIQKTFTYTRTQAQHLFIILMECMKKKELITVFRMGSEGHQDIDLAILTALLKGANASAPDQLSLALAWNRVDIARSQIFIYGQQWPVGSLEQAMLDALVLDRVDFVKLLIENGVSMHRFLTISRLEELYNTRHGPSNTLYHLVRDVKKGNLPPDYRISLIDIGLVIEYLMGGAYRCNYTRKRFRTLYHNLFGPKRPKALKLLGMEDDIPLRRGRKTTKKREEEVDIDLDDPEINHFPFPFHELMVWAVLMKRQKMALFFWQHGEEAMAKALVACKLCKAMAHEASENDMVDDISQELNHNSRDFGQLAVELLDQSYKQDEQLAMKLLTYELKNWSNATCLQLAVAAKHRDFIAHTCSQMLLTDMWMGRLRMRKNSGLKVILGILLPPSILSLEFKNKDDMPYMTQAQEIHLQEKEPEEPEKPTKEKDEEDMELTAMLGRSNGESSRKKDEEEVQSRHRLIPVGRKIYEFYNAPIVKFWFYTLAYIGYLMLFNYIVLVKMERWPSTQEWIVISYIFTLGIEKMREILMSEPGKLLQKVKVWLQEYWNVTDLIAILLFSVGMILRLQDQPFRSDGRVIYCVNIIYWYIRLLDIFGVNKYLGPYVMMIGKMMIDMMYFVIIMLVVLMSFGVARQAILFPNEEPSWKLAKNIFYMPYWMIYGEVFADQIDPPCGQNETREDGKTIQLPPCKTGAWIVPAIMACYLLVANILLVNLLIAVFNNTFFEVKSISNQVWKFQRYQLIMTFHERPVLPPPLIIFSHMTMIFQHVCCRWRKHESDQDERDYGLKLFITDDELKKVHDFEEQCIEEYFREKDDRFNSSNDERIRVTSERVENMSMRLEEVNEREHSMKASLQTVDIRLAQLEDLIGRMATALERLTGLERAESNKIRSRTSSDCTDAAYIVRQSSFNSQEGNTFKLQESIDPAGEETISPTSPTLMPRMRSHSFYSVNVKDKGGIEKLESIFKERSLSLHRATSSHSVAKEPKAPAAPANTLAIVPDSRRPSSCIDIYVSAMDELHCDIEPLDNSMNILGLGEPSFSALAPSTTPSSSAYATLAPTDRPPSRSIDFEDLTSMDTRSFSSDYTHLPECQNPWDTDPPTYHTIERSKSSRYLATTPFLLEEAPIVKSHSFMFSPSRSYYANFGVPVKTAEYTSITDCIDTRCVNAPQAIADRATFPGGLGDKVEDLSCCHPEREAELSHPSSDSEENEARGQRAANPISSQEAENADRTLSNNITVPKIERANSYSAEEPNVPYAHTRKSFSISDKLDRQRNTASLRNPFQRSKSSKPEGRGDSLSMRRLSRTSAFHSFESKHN

| SMILES | IC50 [µM] |
| --- | --- |
| Cc1ccncc1COc1ccc2oc(C)c(C(=O)N[C@@H](CO)C(N)=O)c2c1 [compound 287] | < 1 |
| Cc1ncc(COc2ccc3oc(C)c(C(=O)N[C@H](CO)CS(C)(=O)=O)c3c2)s1 [compound 274, (R)-N-(1-hydroxy-3-(methylsulfonyl)propan-2-yl)-2-methyl-5-((2-methylthiazol-5-yl)methoxy)benzofuran-3-carboxamide] | < 1 |
| Cc1ncsc1COc1ccc2oc(C)c(C(=O)N[C@H](CO)CS(C)(=O)=O)c2c1 [compound 275] | < 1 |

same assay, conditions: PS 50 μM, cpds 300-399

| SMILES | IC50 [µM] |
| --- | --- |
| CNC(=O)CNC(=O)c1c(C)oc2ccc(OCc3scnc3C)cc12 [compound 321, 2-methyl-N-(2-(methylamino)-2-oxoethyl)-5-((4-methylthiazol-5-yl)methoxy)benzofuran-3-carboxamide] | < 1 |
| Cc1oc2ccc(OCc3ncccc3F)cc2c1C(=O)NC1(CO)CCOCC1 [compound 352, 5-((3-fluoropyridin-2-yl)methoxy)-N-(4-(hydroxymethyl)tetrahydro-2H-pyran-4-yl)-2-methylbenzofuran-3-carboxamide] | < 1 |
| O=C(NC1CCNCC1(F)F)c1c(C2CC2)oc2ccc(OCc3cccnc3C(F)(F)F)cc12 (single isomer, unassigned) [cpd 313-En 1] | < 1 |

same assay, conditions: PS (50 μM) stimulated, cpd 001-199

| SMILES | IC50 [µM] |
| --- | --- |
| Cc1oc2ccc(OCc3ccnn3C)cc2c1C(=O)O [compound 008, 2-methyl-5-((1-methyl-1H-pyrazol-5-yl)methoxy)benzofuran-3-carboxylic acid] | > 20 |
| Cc1oc2ccc(OCc3cccnc3C(F)(F)F)cc2c1C(=O)NC1(CNCC(F)(F)F)CCC1 [compound 153, 2-methyl-N-(1-(((2,2,2-trifluoroethyl)amino)methyl)cyclobutyl)-5-((2-(trifluoromethyl)pyridin-3-yl)methoxy)benzofuran-3-carboxamide] | < 1 |
| Cc1ncsc1COc1ccc2oc(C)c(C(=O)NC3(CNCC(F)(F)F)CCC3)c2c1 [compound 145, 2-methyl-5-((4-methylthiazol-5-yl)methoxy)-N-(1-(((2,2,2-trifluoroethyl)amino)methyl)cyclobutyl) -benzofuran-3-carboxamide] | < 1 |
| Cc1oc2c(C#N)cc(OCc3cccnc3C(F)(F)F)cc2c1C(=O)NC1CCNCC1(F)F (single isomer, unassigned) [196-En 1, 7-cyano-N-(3,3-difluoropiperidin-4-yl)-2-methyl-5-((2-(trifluoro-methyl)pyridin-3-yl)methoxy)benzofuran-3-carboxamide] | > 20 |
| Cc1oc2cc(C#N)c(OCc3cccnc3C(F)(F)F)cc2c1C(=O)NC1CCNCC1(F)F (single isomer, unassigned) [195-En 2, 6-cyano-N-(3,3-difluoropiperidin-4-yl)-2-methyl-5-((2-(trifluoromethyl)pyridin-3-yl)methoxy) -benzofuran-3-carboxamide] | > 20 |
| Cc1ncsc1COc1cc2c(C(=O)NC3(CO)CCOCC3)c(C)oc2cc1F [compound 182, 6-fluoro-N-(4-(hydroxymethyl)tetrahydro-2H-pyran-4-yl)-2-methyl-5-((4-methylthiazol-5-yl)methoxy)benzofuran-3-carboxamide] | < 1 |
| Cc1ncsc1COc1ccc2oc(C)c(C(=O)NC3CC4(COC4)C3)c2c1 [compound 156, 2-methyl-5-((4-methylthiazol-5-yl)methoxy)-N-(2-oxaspiro[3,3]heptan-6-yl)benzofuran-3-carboxamide] | < 1 |
| Cc1ncsc1COc1ccc2oc(C)c(C(=O)NC3CNCC3(F)F)c2c1 (single isomer, unassigned) [cpd 106-En 1] | < 1 |
| Cc1ncsc1COc1ccc2oc(C)c(C(=O)NC3(CCO)COC3)c2c1 [compound 128, N-(3-(2-hydroxyethyl)oxetan-3-yl)-2-methyl-5-((4-methylthiazol-5-yl)methoxy)benzofuran-3-carboxamide] | < 1 |
| Cc1ncsc1COc1ccc2oc(C)c(C(=O)NC3CCN(CC(F)(F)F)C3)c2c1 (single isomer, unassigned) [116-En 1, 2-methyl-5-((4-methylthiazol-5-yl)methoxy)-N-(1-(2,2,2-trifluoroethyl)pyrrolidin-3-yl)benzofuran-3-carboxamide] | < 1 |

same assay, conditions: PS (50 μM) stimulated, cpds. 400-499

| SMILES | IC50 [µM] |
| --- | --- |
| Cc1oc2ccc(OCc3ccccn3)cc2c1C(=O)NC1(CO)CC1 [compound 419, N-(1-(hydroxymethyl)cyclopropyl)-2-methyl-5-(pyridin-2-ylmethoxy)benzofuran-3-carboxamide] | < 1 |
| Cc1ncc(COc2ccc3oc(C)c(C(=O)NC(Cn4cncn4)C(N)=O)c3c2)s1 (single isomer, unassigned) [432-En 2, N-(1-amino-1-oxo-3-(1H-1,2,4-triazol-1-yl)propan-2-yl)-2-methyl-5-((2-methylthiazol-5-yl)methoxy)benzofuran-3-carboxamide] | < 1 |
| Cc1ncsc1COc1ccc2oc(C)c(C(=O)NC3(COC(F)F)CC3)c2c1 [compound 400, N-(1-((difluoromethoxy)methyl)cyclopropyl)-2-methyl-5-((4-methylthiazol-5-yl)methoxy)benzofuran-3-carboxamide] | < 1 |
| COc1ncccc1COc1ccc2oc(C)c(C(=O)NC(C)(C)C(N)=O)c2c1 [compound 444, N-(1-amino-2-methyl-1-oxopropan-2-yl)-5-((2-methoxypyridin-3-yl)methoxy)-2-methylbenzofuran-3-carboxamide] | < 1 |
| Cc1oc2ccc(OCc3ccccn3)cc2c1C(=O)NC(C)(CO)CO [compound 428, N-(1,3-dihydroxy-2-methylpropan-2-yl)-2-methyl-5-(pyridin-2-ylmethoxy)benzofuran-3-carboxamide] | < 1 |
| Cc1oc2ccc(OCc3ccnn3C)cc2c1C(=O)NC(C)(C)CO [compound 482, N-(1-hydroxy-2-methylpropan-2-yl)-2-methyl-5-((1-methyl-1H-pyrazol-5-yl)methoxy)benzofuran-3-carboxamide] | < 1 |

same assay, conditions: PS (50 μM) stimulated, cpds. 500-599

| SMILES | IC50 [µM] |
| --- | --- |
| Cc1ncsc1COc1ccc2oc(C)c(C(=O)NC3(CO)CC(F)(F)C3)c2c1 [compound 537, N-(3,3-difluoro-1-(hydroxymethyl)cyclobutyl)-2-methyl-5-((4-methylthiazol-5-yl)methoxy)benzofuran-3-carboxamide] | < 1 |
| Cc1ncsc1COc1cc2c(C(=O)NC3(C(N)=O)COC3)c(C)oc2cc1F [compound 587, N-(3-carbamoyloxetan-3-yl)-6-fluoro-2-methyl-5-((4-methylthiazol-5-yl)methoxy)benzofuran-3-carboxamide] | < 1 |
| COc1cccc(COc2ccc3oc(C)c(C(=O)NC4CCNCC4(F)F)c3c2)n1 (single isomer, unassigned) [cpd 570-En 2] | 1 to 20 |
| Cc1oc2ccc(OCc3ccnn3C)cc2c1C(=O)NC1(CO)COC1 [compound 524, N-(3-(hydroxymethyl)oxetan-3-yl)-2-methyl-5-((1-methyl-1H-pyrazol-5-yl)methoxy)benzofuran-3-carboxamide] | < 1 |
| Cc1cnc(COc2ccc3oc(C)c(C(=O)NC4CCNCC4(F)F)c3c2)s1 (single isomer, unassigned) [cpd 555-En 2] | 1 to 20 |
| Cc1oc2ccc(OCc3cnnn3C)cc2c1C(=O)NC1CCNCC1(F)F (single isomer, unassigned) [cpd 541-En 2] | > 20 |

same assay, conditions: PS (50 μM) stimulated, cpds. 608-666

| SMILES | IC50 [µM] |
| --- | --- |
| Cc1ccc(COc2ccc3oc(C)c(C(=O)NC4(CO)CCOCC4)c3c2)nn1 [compound 621, N-(4-(hydroxymethyl)tetrahydro-2H-pyran-4-yl)-2-methyl-5-((6-methylpyridazin-3-yl)methoxy)benzofuran-3-carboxamide] | > 20 |
| COc1ncccc1COc1ccc2oc(C)c(C(=O)NC3COCC3(F)F)c2c1 (stereo not shown) [compound 665, N-(4,4-difluorotetrahydrofuran-3-yl)-5-((2-methoxypyridin-3-yl)methoxy)-2-methylbenzofuran-3-carboxamide] | < 1 |
| Cc1oc2ccc(OCc3cn(C)nn3)cc2c1C(=O)NC1(CO)CCOCC1 [compound 604, N-(4-(hydroxymethyl)tetrahydro-2H-pyran-4-yl) -2-methyl-5-((1-methyl-1H-1,2,3-triazol-4-yl)methoxy)benzofuran-3-carboxamide] | > 20 |
| Cc1oc2ccc(OCc3cccnc3C(F)(F)F)cc2c1C(=O)NC1COCC1(F)F (stereo not shown) [compound 664, N-(4,4-difluorotetrahydrofuran-3-yl)-2-methyl-5-((2-(trifluoromethyl)pyridin-3-yl)methoxy)benzofuran-3-carboxamide] | < 1 |
| Cc1ncsc1COc1ccc2oc(C(N)=O)c(C(=O)NC3(CO)CCOCC3)c2c1 [compound 658, N3-(4-(hydroxymethyl)tetrahydro-2H-pyran-4-yl)-5-((4-methylthiazol-5-yl)methoxy)benzofuran-2,3-dicarboxamide] | > 20 |
| Cc1oc2ccc(OCc3ccnn3C)cc2c1C(=O)NC1CNCC1(F)F (single isomer, unassigned) [cpd 639-En 1] | < 1 |

same assay, conditions: PS (50 μM) stimulated, cpds. 667-751

| SMILES | IC50 [µM] |
| --- | --- |
| Cc1oc2ccc(OCc3ccc(F)cn3)cc2c1C(=O)N[C@@H](CO)C(N)=O [compound 741, (S)-N-(1-Amino-3-hydroxy-1-oxopropan-2-yl)-5-((5-fluoropyridin-2-yl)methoxy)-2-methylbenzofuran-3-carboxamide] | < 1 |
| Cc1oc2ccc(OCc3ccc(F)cn3)cc2c1C(=O)N[C@H](C(N)=O)[C@@H](C)O [compound 696, N-((2S,3R)-1-amino-3-hydroxy-1-oxobutan-2-yl)-5-((5-fluoropyridin-2-yl)methoxy)-2-methylbenzofuran-3-carboxamide] | < 1 |
| Cc1oc2ccc(OCc3nccs3)cc2c1C(=O)N[C@@H](CO)C(N)=O [compound 695, (S)-N-(1-Amino-3-hydroxy-1-oxopropan-2-yl)-2-methyl-5-(thiazol-2-ylmethoxy)benzofuran-3-carboxamide] | < 1 |
